Laboratory results published in patent US20260258025A1, “INHIBITORS OF TDP-43 AND TAU AGGREGATION” (Aquinnah Pharmaceuticals, inc., priority 2023, published 2026).
pIC50: −log10 of the molar value.

Test system: TDP-43 aggregation
Test: TDP-43 aggregation assay in SY5Y TDP-43WT cells (high content imaging)
Type: cell-based
Conditions: Homo sapiens, tetracycline induction 24 hrs, 1 hour compound pre-treatment, sodium arsenite 23 hrs, 8-point dose curve, percentage of cells with TDP-43 aggregates, read-out: IC50, Inhibition of TDP-43 Aggregation
Description: Exemplary compounds disclosed herein were evaluated for efficacy in inhibiting TDP-43 inclusions cellular imaging-based assays.
The cellular model was in human neuroblastoma SH SYSY cells (ATCC, cat #: CRL-2266). The parent cell line was first engineered to stably express a tetracycline repressor protein (designated as TREx-SY5Y cells, customer cell line development by ThermoFisher). Wild-type human TDP-43 with a C-terminus eGFP tag was synthesized and cloned into pcDNA5/TO expression vector (ThermoFisher). The plasmid was transfected into TREx-SY5Y cells using Lipofectamine 2000 and hygromycin resistant colonies were selected. Expression of TDP-43WT::eGFP was examined under fluorescent microscopy and Western blot upon tetracycline induction. The clone that was used for TDP-43 aggregation assay is referred to as SY5Y TDP-43WT cells hereafter.
Compound inhibition of TDP-43 aggregation was tested in an 8-point dose curve in 96-well format. Briefly, TDP-43WT::eGFP expression was induced with […] for 24 hrs (SY5Y TDP-43WT cells). The cells were then pre-treated for 1 hour with exemplary compounds before adding sodium arsenite to a final concentration of […] and incubated for another 23 hrs. At the end of the treatment the cell monolayers were washed in PBS and fixed in 4% paraformaldehyde (PFA), diluted from 16% stock (Electron Microscopy Sciences cat: #15710-S). The inhibitory effect on TDP-43 aggregation was measured using CellInsight CX7 high content imager (ThermoFisher). The percentage of cells with TDP-43 aggregates was calculated based on the total number of cells identified by DAPI staining. An 8-point dose response curve was generated, and the IC50 for each compound tested was determined (Table 3).
In Table 3 below, A indicates an IC50 (nM)<500 nM, B indicates an IC50 (nM) 500 nM to <1000 nM, C indicates an IC50 (nM) 1000 nM to <2000 nM, D indicates an IC50 (nM) 2000 nM to <6000 nM, and E indicates an IC50 (nM) 6000 nM to ≤10000 nM.

SMILES	pIC50
COc1cc(-c2ccc(C3CCN(C4CCOCC4)CC3)c(Cl)c2)sc1C(=O)N1CC[C@H](N)C1 [Compound 272, (S)-(3-aminopyrrolidin-1-yl)(5-(3-chloro-4-(1-(tetrahydro-2H-pyran-4-yl)piperidin-4-yl)phenyl)-3-methoxythiophen-2-yl)methanone]	5.70 to 6.00
CN1CCC(c2ccc(-c3cc(Cl)c(C(=O)N4CC[C@H](N)C4)s3)cc2F)CC1 [Compound 280, (S)-(3-aminopyrrolidin-1-yl)(3-chloro-5-(3-fluoro-4-(1-methylpiperidin-4-yl)phenyl)thiophen-2-yl)methanone]	> 6.30
CCN1CCC(c2ccc(-c3cc(C)c(C(=O)N4CC[C@H](N)C4)s3)cc2F)CC1 [Compound 281, (S)-(3-aminopyrrolidin-1-yl)(5-(4-(1-ethylpiperidin-4-yl)-3-fluorophenyl)-3-methylthiophen-2-yl)methanone]	> 6.30
Cc1cc(-c2ccc(C3CCN(C(C)C)CC3)c(F)c2)sc1C(=O)N1CC[C@H](N)C1 [Compound 282, (S)-(3-aminopyrrolidin-1-yl)(5-(3-fluoro-4-(1-isopropylpiperidin-4-yl)phenyl)-3-methylthiophen-2-yl)methanone]	> 6.30
COCCN1CCC(c2ccc(-c3cc(Cl)c(C(=O)N4CC[C@H](N)C4)s3)cc2F)CC1 [Compound 283, (S)-(3-aminopyrrolidin-1-yl)(3-chloro-5-(3-fluoro-4-(1-(2-methoxyethyl)piperidin-4-yl)phenyl)thiophen-2-yl)methanone]	> 6.30
CC(C)N1CCC(c2ccc(-c3cc(Cl)c(C(=O)N4CC[C@H](N)C4)s3)cc2F)CC1 [Compound 284, (S)-(3-aminopyrrolidin-1-yl)(3-chloro-5-(3-fluoro-4-(1-isopropylpiperidin-4-yl)phenyl)thiophen-2-yl)methanone]	> 6.30
CCCc1cc(-c2ccc(C3CCN(C4CCOCC4)CC3)cc2)sc1C(=O)N1CC[C@H](N)C1 [Compound 285, (S)-(3-aminopyrrolidin-1-yl)(3-propyl-5-(4-(1-(tetrahydro-2H-pyran-4-yl)piperidin-4-yl)phenyl)thiophen-2-yl)methanone]	5.70 to 6.00
C=CCc1cc(-c2ccc(C3CCN(C4CCOCC4)CC3)cc2)sc1C(=O)N1CC[C@H](N)C1 [Compound 286]	> 6.30
Cc1cc(-c2ccc(C3CCN(C4CCOCC4)CC3)c(Cl)c2)sc1C(=O)N1CC[C@H](N)C1 [Compound 287, (S)-(3-aminopyrrolidin-1-yl)(5-(3-chloro-4-(1-(tetrahydro-2H-pyran-4-yl)piperidin-4-yl)phenyl)-3-methylthiophen-2-yl)methanone]	> 6.30
C#CCOCCN1CCC(c2ccc(-c3cc(C)c(C(=O)N4CC[C@H](N)C4)s3)cc2)CC1 [Compound 288, (S)-(3-amino-pyrrolidin-1-yl)(3-methyl-5-(4-(1-(2-(prop-2-yn-1-yloxy)ethyl)piperidin-4-yl)phenyl)thiophen-2-yl) methanone]	> 6.30
CCc1cc(-c2ccc(C3CCN(C4CCOCC4)CC3)cc2)sc1C(=O)N1CC[C@H](N)C1 [Compound 289, (S)-(3-aminopyrrolidin-1-yl)(3-ethyl-5-(4-(1-(tetrahydro-2H-pyran-4-yl)piperidin-4-yl)phenyl)thiophen-2-yl)methanone]	> 6.30
C#CCOCCOCCN1CCC(c2ccc(-c3cc(C)c(C(=O)N4CC[C@H](N)C4)s3)cc2)CC1 [Compound 290, (S)-(3-aminopyrrolidin-1-yl)(3-methyl-5-(4-(1-(2-(2-(prop-2-yn-1-yloxy)ethoxy)ethyl)piperidin-4-yl)phenyl)thiophen-2-yl)methanone]	> 6.30
CCc1cc(-c2ccc(C3CCN(C4CCOCC4)CC3)c(F)c2)sc1C(=O)N1CC[C@H](N)C1 [Compound 291, (S)-(3-aminopyrrolidin-1-yl)(3-ethyl-5-(3-fluoro-4-(1-(tetrahydro-2H-pyran-4-yl)piperidin-4-yl)phenyl)thiophen-2-yl)methanone]	> 6.30
COc1cc(-c2ccc(C3CCN(C4CCOCC4)CC3)c(F)c2)sc1C(=O)N1CC[C@H](N)C1 [Compound 292, (S)-(3-aminopyrrolidin-1-yl)(5-(3-fluoro-4-(1-(tetrahydro-2H-pyran-4-yl)piperidin-4-yl)phenyl)-3-methoxythiophen-2-yl)methanone]	6.00 to 6.30
COc1cc(-c2ccc(C3CCN(C4CCOCC4)CC3)cc2)sc1C(=O)N1CC[C@H](N)C1 [Compound 293]	6.00 to 6.30
N[C@H]1CCN(C(=O)c2sc(-c3ccc(C4CCN(C5CCOCC5)CC4)cc3)cc2Cl)C1 [Compound 294, (S)-(3-aminopyrrolidin-1-yl)(3-chloro-5-(4-(1-(tetrahydro-2H-pyran-4-yl)piperidin-4-yl)phenyl)thiophen-2-yl)methanone]	> 6.30
N[C@H]1CCN(C(=O)c2sc(-c3ccc(C4CCN(C5CCOCC5)CC4)c(F)c3)cc2Cl)C1 [Compound 295, (S)-(3-aminopyrrolidin-1-yl)(3-chloro-5-(3-fluoro-4-(1-(tetrahydro-2H-pyran-4-yl)piperidin-4-yl)phenyl)thiophen-2-yl)methanone]	> 6.30
Cc1cc(-c2ccc(C3CCN(C4CCOCC4)CC3)c(F)c2)sc1C(=O)N1CC[C@H](N)C1 [Compound 296, (S)-(3-aminopyrrolidin-1-yl)(5-(3-fluoro-4-(1-(tetrahydro-2H-pyran-4-yl)piperidin-4-yl)phenyl)-3-methylthiophen-2-yl)methanone]	> 6.30

Continued, values first:

pIC50	SMILES
> 6.30	N[C@H]1CCN(C(=O)c2sc(-c3ccc(C4CCN(C5CCC5)CC4)c(F)c3)cc2Cl)C1 [Compound 271, (S)-(3-aminopyrrolidin-1-yl)(3-chloro-5-(4-(1-cyclobutylpiperidin-4-yl)-3-fluorophenyl)thiophen-2-yl)methanone]
> 6.30	N[C@H]1CCN(C(=O)c2sc(-c3ccc(C4CCN(C5CCOCC5)CC4)c(Cl)c3)cc2Cl)C1 [Compound 273, (S)-(3-aminopyrrolidin-1-yl)(3-chloro-5-(3-chloro-4-(1-(tetrahydro-2H-pyran-4-yl)piperidin-4-yl)phenyl)thiophen-2-yl)methanone]
> 6.30	Cc1cc(-c2ccc(C3CCN(C4CCOC4)CC3)c(F)c2)sc1C(=O)N1CC[C@H](N)C1 (stereo partly drawn) [Compound 274, ((S)-3-aminopyrrolidin-1-yl)(5-(3-fluoro-4-(1-(tetrahydrofuran-3-yl)piperidin-4-yl)phenyl)-3-methylthiophen-2-yl)methanone]
> 6.30	COCCCN1CCC(c2ccc(-c3cc(C)c(C(=O)N4CC[C@H](N)C4)s3)cc2F)CC1 [Compound 275, (S)-(3-aminopyrrolidin-1-yl)(5-(3-fluoro-4-(1-(3-methoxypropyl)piperidin-4-yl)phenyl)-3-methylthiophen-2-yl)methanone]
> 6.30	COCCN1CCC(c2ccc(-c3cc(C)c(C(=O)N4CC[C@H](N)C4)s3)cc2F)CC1 [Compound 276, (S)-(3-aminopyrrolidin-1-yl)(5-(3-fluoro-4-(1-(2-methoxyethyl)piperidin-4-yl)phenyl)-3-methylthiophen-2-yl)methanone]
> 6.30	Cc1cc(-c2ccc(C3CCN(C4CCCCC4)CC3)c(F)c2)sc1C(=O)N1CC[C@H](N)C1 [Compound 277, (S)-(3-aminopyrrolidin-1-yl)(5-(4-(1-cyclohexylpiperidin-4-yl)-3-fluorophenyl)-3-methylthiophen-2-yl)methanone]
> 6.30	Cc1cc(-c2ccc(C3CCN(C4CCCC4)CC3)c(F)c2)sc1C(=O)N1CC[C@H](N)C1 [Compound 278, (S)-(3-aminopyrrolidin-1-yl)(5-(4-(1-cyclopentylpiperidin-4-yl)-3-fluorophenyl)-3-methylthiophen-2-yl)methanone]
> 6.30	Cc1cc(-c2ccc(C3CCN(C4CCC4)CC3)c(F)c2)sc1C(=O)N1CC[C@H](N)C1 [Compound 279, (S)-(3-aminopyrrolidin-1-yl)(5-(4-(1-cyclobutylpiperidin-4-yl)-3-fluorophenyl)-3-methylthiophen-2-yl)methanone]
